The NIST ThermoML archive (doi:10.1016/j.fluid.2011.03.030)

Assays:
[1] = xn = mol fraction of the nth substance listed; conditions: 101 kPa, Liquid; for viscosity: Capillary tube (Ostwald / Ubbelohde) method; for mass density: Vibrating tube method
[2] = Liquid; for viscosity: Capillary tube (Ostwald / Ubbelohde) method; for mass density: Vibrating tube method; for vapor or sublimation pressure / Normal boiling temperature: Ebulliometric method (Recirculating still)

CC1CCCCC1 [methylcyclohexane] + C1C[C@@H]2[C@H]3CC[C@H](C3)[C@@H]2C1
[1], x1 = 1
Conditions	mass density [kg/m3]	viscosity [mPa·s]
303.15 K	760.65	0.627
308.15 K	756.29	0.581
313.15 K	751.93	0.554

CC1CCCCC1 [methylcyclohexane]
[2]
Conditions	mass density, 298.15 K [kg/m3]	mass density, 303.15 K [kg/m3]	mass density, 308.15 K [kg/m3]	mass density, 313.15 K [kg/m3]	viscosity, 298.15 K [mPa·s]	viscosity, 303.15 K [mPa·s]	viscosity, 308.15 K [mPa·s]	viscosity, 313.15 K [mPa·s]
101 kPa	–	760.65	756.29	751.93	–	0.627	0.581	0.554
101.33 kPa	765	–	–	–	0.678	–	–	–

[2]
Conditions	vapor or sublimation pressure [kPa]
321.9 K	17.91
331.5 K	25.77
336.8 K	31.22
342.3 K	37.99
346.9 K	44.45
350.7 K	50.35
355.2 K	58.09
359.1 K	65.61
362.3 K	72.29
364.8 K	79.09
366.4 K	85.13
369.8 K	92.76
373.9 K	100.7

Conditions	Normal boiling temperature [°C]
[2]	98.98

C1C[C@@H]2[C@H]3CC[C@H](C3)[C@@H]2C1 [exo-tetrahydrodicyclopentadiene] + CC1CCCCC1
[1]
Conditions	mass density, 303.15 K [kg/m3]	mass density, 308.15 K [kg/m3]	mass density, 313.15 K [kg/m3]	viscosity, 303.15 K [mPa·s]	viscosity, 308.15 K [mPa·s]	viscosity, 313.15 K [mPa·s]
x2 = 0	927.41	923.48	919.58	2.522	2.298	2.107
x2 = 0.1404	907.42	903.45	899.48	2.047	1.891	1.736
x2 = 0.2593	889.67	885.65	881.63	1.754	1.616	1.475
x2 = 0.3693	872.78	868.72	864.67	1.502	1.386	1.275
x2 = 0.4981	851.85	847.73	843.61	1.258	1.163	1.078
x2 = 0.5813	837.98	833.82	829.66	1.113	1.02	0.963
x2 = 0.6745	821.76	817.58	813.38	0.975	0.897	0.862
x2 = 0.763	805.84	801.58	797.33	0.866	0.798	0.754
x2 = 0.8469	790.22	785.95	781.66	0.772	0.711	0.675
x2 = 0.9245	775.47	771.16	766.83	0.693	0.644	0.612

C1C[C@@H]2[C@H]3CC[C@H](C3)[C@@H]2C1 [exo-tetrahydrodicyclopentadiene]
[2]
Conditions	mass density, 298.15 K [kg/m3]	mass density, 303.15 K [kg/m3]	mass density, 308.15 K [kg/m3]	mass density, 313.15 K [kg/m3]	viscosity, 298.15 K [mPa·s]	viscosity, 303.15 K [mPa·s]	viscosity, 308.15 K [mPa·s]	viscosity, 313.15 K [mPa·s]
101 kPa	–	927.41	923.48	919.58	–	2.522	2.298	2.107
101.33 kPa	931.4	–	–	–	2.739	–	–	–

[2]
Conditions	vapor or sublimation pressure [kPa]
396 K	16.64
401.4 K	20.62
413.8 K	30.3
418.3 K	34.79
426.8 K	44.86
431.2 K	50.7
434.5 K	55.76
436.6 K	59.2
439 K	63.22
441.1 K	66.63
442.7 K	69.49
442.8 K	69.77
444.3 K	72.58
445.7 K	75.11
446.1 K	75.89
450 K	83.92
457.3 K	101.1

Conditions	Normal boiling temperature [°C]
[2]	184.94
